In brackets after ≈: the same amount, converted by molar mass.
Columns and labels:
Format in all cases: functional
Enterococcus faecalis [1] = test: Antimicrobial activity against Enterococcus faecalis GC 2242 (VRE)
Escherichia coli [2] = test: Antimicrobial activity against Escherichia coli GC 4559
Escherichia coli [3] = test: Antimicrobial activity against Escherichia coli GC 4560
Enterococcus faecalis [4] = test: Antimicrobial activity against Enterococcus faecalis GC 4555 (ATCC)
[5] = Inhibitory activity against MurA from Escherichia coli
[6] = Inhibitory activity against MurB from Escherichia coli
[7] = Inhibitory activity against MurB from Staphylococcus aureus
[8] = Antimicrobial activity against MSCNS (methicillin-susceptible coagulase-negative staphylococci) GC 646; settings: Staphylococcus
Staphylococcus aureus [9] = test: Antimicrobial activity against Staphylococcus aureus GC 1131 (MRSA)
Staphylococcus aureus [10] = test: Antimicrobial activity against Staphylococcus aureus GC 2216 (ATCC)
Staphylococcus aureus [11] = test: Antimicrobial activity against Staphylococcus aureus GC 4543 (MSSA)
Streptococcus pneumoniae [12] = test: Antimicrobial activity against Streptococcus pneumoniae GC1894 (PRSP) in the presence of 4% bovine serum albumin
Streptococcus pneumoniae [13] = test: Antimicrobial activity against Streptococcus pneumoniae GC1894 (PRSP)

Row | Compound | MIC (Enterococcus faecalis [1]) [µg/mL] | MIC (Escherichia coli [2]) [µg/mL] | MIC (Escherichia coli [3]) [µg/mL] | MIC (Enterococcus faecalis [4]) [µg/mL] | IC50 [5] [µg/mL] | IC50 [6] [µg/mL] | IC50 [7] [µg/mL] | MIC [8] [µg/mL] | MIC (Staphylococcus aureus [9]) [µg/mL] | MIC (Staphylococcus aureus [10]) [µg/mL] | MIC (Staphylococcus aureus [11]) [µg/mL] | MIC (Streptococcus pneumoniae [12]) [µg/mL] | MIC (Streptococcus pneumoniae [13]) [µg/mL]
1 | CC(C)(C)c1nc(NC(=O)Nc2cccnc2)sc1C#N | > 128 | > 128 | > 128 | > 128 | 25 (≈ 83 µM) | 25 (≈ 83 µM) | 25 (≈ 83 µM) | > 128 | > 128 | > 128 | > 128 | > 128 | > 128
2 | CC(C)(C)c1nc(NC(=O)Nc2cccc(C#N)c2)sc1C#N | 8 (≈ 24.6 µM) | > 128 | > 128 | 16 (≈ 49.2 µM) | > 25 | > 25 | > 25 | > 128 | > 128 | > 128 | > 128 | > 128 | 8 (≈ 24.6 µM)
3 | N#Cc1sc(NC(=O)Nc2ccc(Cl)c(Cl)c2)nc1N1CCOCC1 | 128 (≈ 321 µM) | > 128 | > 128 | > 128 | > 25 | > 25 | 13 (≈ 32.6 µM) | > 128 | > 128 | > 128 | > 128 | > 128 | > 128
4 | Cc1ccc(NC(=O)Nc2nc(C(C)(C)C)c(C#N)s2)cc1C | 0.5 (≈ 1.52 µM) | > 128 | 2 (≈ 6.09 µM) | 0.5 (≈ 1.52 µM) | > 25 | 6.2 (≈ 18.9 µM) | 6.3 (≈ 19.2 µM) | 0.5 (≈ 1.52 µM) | 0.5 (≈ 1.52 µM) | 0.25 (≈ 0.761 µM) | 0.25 (≈ 0.761 µM) | 128 | < 0.12
5 | CC(C)(C)c1nc(NC(=O)NCc2ccc(Cl)c(Cl)c2)sc1C#N | 0.5 (≈ 1.3 µM) | > 128 | 2 (≈ 5.22 µM) | 1 (≈ 2.61 µM) | 20.8 (≈ 54.3 µM) | > 25 | 11 (≈ 28.7 µM) | 1 (≈ 2.61 µM) | 1 (≈ 2.61 µM) | 0.25 (≈ 0.652 µM) | 0.5 (≈ 1.3 µM) | 128 | < 0.12

Now from value to molecule:

Row | MIC (Enterococcus faecalis [1]) [µg/mL] | MIC (Escherichia coli [2]) [µg/mL] | MIC (Escherichia coli [3]) [µg/mL] | MIC (Enterococcus faecalis [4]) [µg/mL] | IC50 [5] [µg/mL] | IC50 [6] [µg/mL] | IC50 [7] [µg/mL] | MIC [8] [µg/mL] | MIC (Staphylococcus aureus [9]) [µg/mL] | MIC (Staphylococcus aureus [10]) [µg/mL] | MIC (Staphylococcus aureus [11]) [µg/mL] | MIC (Streptococcus pneumoniae [12]) [µg/mL] | MIC (Streptococcus pneumoniae [13]) [µg/mL] | Compound
6 | 0.5 (≈ 1.6 µM) | > 128 | 4 (≈ 12.8 µM) | 1 (≈ 3.19 µM) | 12.6 (≈ 40.2 µM) | 4.5 (≈ 14.4 µM) | 5.6 (≈ 17.9 µM) | 1 (≈ 3.19 µM) | 1 (≈ 3.19 µM) | 0.5 (≈ 1.6 µM) | 0.5 (≈ 1.6 µM) | 128 | < 0.12 | N#Cc1cnc(NC(=O)Nc2ccc(Cl)c(Cl)c2)s1
7 | 2 (≈ 6.39 µM) | > 128 | 8 (≈ 25.5 µM) | 8 (≈ 25.5 µM) | > 25 | > 25 | 14 (≈ 44.7 µM) | 4 (≈ 12.8 µM) | 8 (≈ 25.5 µM) | 4 (≈ 12.8 µM) | 4 (≈ 12.8 µM) | 128 | < 0.12 | N#Cc1csc(NC(=O)Nc2ccc(Cl)c(Cl)c2)n1
8 | 64 (≈ 196 µM) | > 128 | > 128 | > 128 | > 25 | > 25 | 24 (≈ 73.4 µM) | > 128 | > 128 | > 128 | > 128 | 128 | 64 (≈ 196 µM) | N#Cc1cnc(NC(=O)NCc2ccc(Cl)c(Cl)c2)s1

Reference: ChEMBL document CHEMBL1137071, “Phenyl thiazolyl urea and carbamate derivatives as new inhibitors of bacterial cell-wall biosynthesis” (Bioorg Med Chem Lett, 2004)
